Measurements taken from PubChem BioAssay AID2061108 (Research group of Professor Matthew Todd, School of …, 2025).
Activity calls are given as the source filed them. No rule for the calls is given here.

How the values were obtained:
Assay in all cases: antibacterial and antifungal growth inhibition panel, profiling panel, Idler compounds, first plate, PMBN-permeabilized strains (AID 2061108)
Set-up in all cases: haemolysis: dose or concentration left out as unconfirmed
[1] = test system: C. albicans NCPF 3281 growth inhibition, 100 uM; conditions: S. aureus ATCC 9144 growth inhibition; measured here: C. albicans NCPF 3281; at 100 µM; stronger effect = higher value
[2] = test system: E. coli NCTC 12923 + PMBN growth inhibition, 100 uM; conditions: S. aureus ATCC 9144 growth inhibition; measured here: E. coli plus PMBN; at 100 µM; stronger effect = higher value
[3] = test system: M. avium growth inhibition, 10 uM; conditions: M. avium growth inhibition, 10 µM
[4] = test system: E. coli NCTC 12923 growth inhibition, 100 uM; conditions: E. coli NCTC 12923 growth inhibition, 100 µM; stronger effect = higher value
[5] = test system: A. baumannii ATCC 17978 + PMBN growth inhibition, 100 uM; conditions: A. baumannii plus PMBN growth inhibition, 100 µM; stronger effect = higher value
[6] = test system: S. aureus ATCC 9144 growth inhibition, 100 uM; conditions: S. aureus ATCC 9144 growth inhibition; at 100 µM; stronger effect = higher value
[7] = test system: red blood cell haemolysis; conditions: stronger effect = higher value; dose or concentration not given here
[8] = test system: A. baumannii ATCC 17978 growth inhibition, 100 uM; conditions: S. aureus ATCC 9144 growth inhibition; measured here: A. baumannii ATCC 17978; at 100 µM; stronger effect = higher value
[9] = test system: M. abscessus growth inhibition, 10 uM; conditions: S. aureus ATCC 9144 growth inhibition; measured here: M. abscessus; at 10 µM

Structure (SMILES)	inhibition [1]	inhibition [2]	inhibition [3]	inhibition [4]	inhibition [5]	inhibition [6]	haemolysis [7]	inhibition [8]	inhibition [9]
N#Cc1c(N2Cc3cccc(O)c3C2)nc2ccccc2c1C(F)(F)F	3.66%	35.4%	0.654%	2.16%	33.9%	97%	-0.139%	23.8%	-1.26%
COc1cccc(C(=O)Nc2nc3cc(Cl)c(OC)cc3s2)c1	-74.4%	-13.2%	0.396%	-30.8%	19.1%	2.28% (inactive)	4.42%	-4.34%	-0.266%
FC(F)Oc1ccc(-c2nnc3cncc(OCCCC(F)(F)F)n23)cc1	-49.2%	-9.02%	-0.289%	-7.16%	4.86%	-9.47% (inactive)	0.0506%	-14.8%	-0.237%
Cn1c(=O)oc2cc(S(=O)(=O)NC3CC4CCC3C4)ccc21 (stereo unspecified)	-18.8%	-2.35%	-0.637%	-0.946%	25.8%	17.3% (inactive)	-0.134%	-1.79%	-0.526%
Cc1cccc(C)c1OCC(O)CSc1ccccn1 (stereo unspecified)	-34.4%	59.6%	-0.789%	-44.2%	51.9%	-7.89% (inactive)	0.214%	11.9%	-0.104%
O=S(=O)(F)c1cccc(NCc2ccc(F)cc2)n1	-98.2%	0.494%	1.19%	-1.49%	16.7%	13% (inactive)	-0.396%	-3.33%	-1.1%
Cc1cc(NC(=O)c2ccc(F)c(C(C)(C)C#N)c2)nn1C	-51.4%	-1.71%	-0.0495%	-2.97%	22.3%	1.75% (inactive)	0.0361%	-0.843%	0.104%
Cc1ccc(CN2C(=O)NC3(CCN(C(=O)C(C)Oc4ccccc4)CC3)C2=O)cc1 (stereo unspecified)	-57.6%	22.5%	-0.615%	-2.03%	22.5%	8.83% (inactive)	-0.00857%	-7.26%	-1.03%
COc1ccc2c(c1)nc(-c1c[nH]c3ccc(N4CCSCC4)cc13)c1[nH]ccc12	95%	97%	3%	9.46%	96.3%	98.1%	1.04%	98.1%	0.136%
CC(C)CC(N)C(=O)NS(=O)(=O)c1cccc(-c2cc3ncnc(N)c3s2)c1 (stereo unspecified)	43.5%	-22.3%	12%	-84.3%	-8.7%	-17.7% (inactive)	-0.408%	-8.69%	-0.687%
O=c1[nH]c(=O)c2cc(S(=O)(=O)Nc3cc(F)c(N4CCC(N5CCOCC5)CC4)c(F)c3)ccc2[nH]1	-44.5%	1.59%	0.48%	-6.35%	19.7%	14.7% (inactive)	0.307%	4.34%	-0.0703%
N#CC1(c2cccc(-c3cccc4c3CCOC4C(=O)O)c2)CC1 (stereo unspecified)	-60.5%	-11.3%	-1.43%	-6.62%	20.9%	-2.28% (inactive)	0.0202%	-4.34%	0.107%
Cn1nc(C(C)(C)C)cc1NC(=O)Nc1ccc(Cl)cc1	-75.2%	99.4%	0.442%	12.6%	83%	-18.4%	0.904%	-12%	-0.347%
N#Cc1ccc(NC2Cc3cccc(O)c3C2)cc1Cl (stereo unspecified)	100%	101%	0.34%	25%	101%	100%	0.539%	65.2%	-0.909%
